Source: ChEMBL document CHEMBL5543078, “Peptidomimetics as potent dual SARS-CoV-2 cathepsin-L and main protease inhibitors: In silico design, synthesis and pharmacological characterization” (Eur J Med Chem, 2024)
Activity calls are given as the source filed them. The rule behind the calls is not given here. Non-standard residues stand in square brackets, D forms with d. Residues, ends and D or L forms follow the SMILES beside them. *: point of attachment. AllylGly = C=CC[C@H](N)C(=O)O; NHBn = c1ccc(CN*)cc1; ClAc = O=C(CCl)*

Columns and labels:
[1] = molecular target: Replicase polyprotein 1ab (Severe acute respiratory syndrome coronavirus 2, UniProt P0DTD1); assay: Inhibition of recombinant SARS-CoV-2 main protease using DABCYL-KTSAVLQSGFRKME-EDANS as fluorescent substrate preincubated for 30 mins followed by substrate addition by FRET assay
[2] = Cytotoxicity against African green monkey Vero cells assessed as change in cell morphology by measuring minimum cytotoxic concentration by microscopic analysis; assay type: toxicity, cell-based; settings: chlorocebus sabaeus
Human coronavirus 229E = assay type: functional, organism-based
Human coronavirus OC43 = assay type: functional, organism-based
[3] = Stability in simulated gastric fluid assessed as parent compound remaining incubated upto 120 mins by LC-MS analysis; assay type: ADME; settings: read-out: Stability
[4] = Stability in simulated intestinal fluid assessed as parent compound remaining incubated upto 120 mins by LC-MS analysis; assay type: ADME; settings: read-out: Stability
[5] = Metabolic stability in human liver microsomes assessed as half life incubated upto 60 mins in presence of NADPH by LC-MS analysis; assay type: ADME, Microsome
[6] = Metabolic stability in human liver microsomes assessed as half life incubated upto 60 mins in presence of NADPH and UDPGA by LC-MS analysis; assay type: ADME, Microsome
[7] = Metabolic stability in human liver microsomes assessed as intrinsic clearance incubated upto 60 mins in presence of NADPH by LC-MS analysis; assay type: ADME, Microsome; settings: read-out: CLH
SARS-CoV-2 [8] = assay: microbe, parasite or virus in culture; settings: Severe acute respiratory syndrome coronavirus 2, Wuhan/WIV04/2020, Vero
Description: Antiviral activity against SARS-CoV-2 Wuhan/WIV04/2020 infected in African green monkey Vero cells assessed as reduction in virus-induced cytopathic effect incubated for 6 to 7 days by microscopic analysis

SARS-CoV-2 [9] = assay: microbe, parasite or virus in culture; settings: Severe acute respiratory syndrome coronavirus 2, NVDBB-2220 (Alpha), Vero
Description: Antiviral activity against SARS-CoV-2 NVDBB-2220 (Alpha) infected in African green monkey Vero cells assessed as reduction in virus-induced cytopathic effect incubated for 6 to 7 days by microscopic analysis

SARS-CoV-2 [10] = assay: microbe, parasite or virus in culture; settings: Severe acute respiratory syndrome coronavirus 2, 860-J1 (Delta), Vero
Description: Antiviral activity against SARS-CoV-2 860-J1 (Delta) infected in African green monkey Vero cells assessed as reduction in virus-induced cytopathic effect incubated for 6 to 7 days by microscopic analysis

SARS-CoV-2 [11] = assay: microbe, parasite or virus in culture; settings: Severe acute respiratory syndrome coronavirus 2, Omicron B1.1.529, Vero
Description: Antiviral activity against SARS-CoV-2 Omicron B1.1.529 infected in African green monkey Vero cells assessed as reduction in virus-induced cytopathic effect incubated for 6 to 7 days by microscopic analysis

[12] = Half life in human plasma at 10 uM measured upto 180 mins by LC-MS analysis; assay type: ADME, cell-free
Procathepsin L = Procathepsin L (Homo sapiens, UniProt P07711); assay: Inhibition of Cathepsin L (unknown origin) using Z-Leu-Arg-AMC fluorometric dipeptide as substrate peincubated for 10 mins followed by substrate addition by fluorescence based assay
Procathepsin L, sequence (P07711 whole entry): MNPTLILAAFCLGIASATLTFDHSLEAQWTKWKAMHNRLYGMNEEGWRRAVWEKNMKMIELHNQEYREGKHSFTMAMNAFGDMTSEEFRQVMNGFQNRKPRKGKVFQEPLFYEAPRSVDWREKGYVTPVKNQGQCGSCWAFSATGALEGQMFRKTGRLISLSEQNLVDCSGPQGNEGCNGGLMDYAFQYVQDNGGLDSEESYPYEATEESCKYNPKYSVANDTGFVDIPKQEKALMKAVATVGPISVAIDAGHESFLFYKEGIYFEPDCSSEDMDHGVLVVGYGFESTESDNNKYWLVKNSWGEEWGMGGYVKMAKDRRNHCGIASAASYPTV

| Structure (SMILES) | IC50 [1] [µM] | MCC [2] [µM] | Activity (Human coronavirus 229E) | Activity (Human coronavirus OC43) | remaining at 2 h [3] [%] | remaining at 2 h [4] [%] | half-life [5] [min] | half-life [6] [min] | CLint scaled [7] [mL/min/kg] | EC50 (SARS-CoV-2 [8]) [µM] | EC50 (SARS-CoV-2 [9]) [µM] | EC50 (SARS-CoV-2 [10]) [µM] | EC50 (SARS-CoV-2 [11]) [µM] | half-life at 10 µM [12] [min] | IC50 (Procathepsin L) [µM] |
| --- | --- | --- | --- | --- | --- | --- | --- | --- | --- | --- | --- | --- | --- | --- | --- |
| O=C(CCl)NCC(=O)N[C@@H](Cc1c[nH]c2ccccc12)C(=O)NCc1ccccc1 (ClAc-Gly-Trp-NHBn) | > 30 | > 100 | Active | Active | > 80 | > 80 | 346 | 122 | < 15 | 0.16 | 0.3 | 0.54 | 0.81 | – | – |
| CC(C)C[C@H](NC(=O)CCl)C(=O)N[C@@H](Cc1ccccc1)C(=O)N[C@@H](Cc1c[nH]c2ccccc12)C(=O)NCc1ccccc1 (ClAc-Leu-Phe-Trp-NHBn) | > 30 | > 100 | Active | Active | – | – | – | – | – | 4.81 | > 20 | > 20 | > 100 | – | – |
| COC(=O)[C@H](CCC(N)=O)NC(=O)[C@H](Cc1c[nH]c2ccccc12)NC(=O)[C@H](CC(C)C)NC(=O)CCl (ClAc-Leu-Trp-Gln-OMe) | > 30 | > 100 | Active | Active | – | – | – | – | – | > 100 | > 100 | > 100 | > 100 | – | – |
| O=C(CCl)N[C@@H](Cc1ccccc1)C(=O)N[C@@H](Cc1c[nH]c2ccccc12)C(=O)NCc1ccccc1 (ClAc-Phe-Trp-NHBn) | 0.73 | > 100 | Active | Active | > 80 | > 80 | 38.3 | 19.6 | > 45 | 0.09 | 0.68 | 1.3 | 1.34 | – | – |
| CC(C)C[C@H](NC(=O)[C@H](Cc1c[nH]c2ccccc12)NC(=O)CCl)C(=O)NCc1ccccc1 (ClAc-Trp-Leu-NHBn) | 8.32 | 20 | Active | Active | > 80 | > 80 | – | – | – | 0.25 | 0.41 | 1.25 | 0.4 | 24.4 | – |
| COC(=O)[C@H](CC(C)C)NC(=O)[C@H](Cc1c[nH]c2ccccc12)NC(=O)CCl (ClAc-Trp-Leu-OMe) | > 30 | 21 | Active | Active | – | – | – | – | – | > 4 | > 20 | > 20 | > 4 | – | – |
| O=C(CCl)N[C@@H](Cc1ccc(O)cc1)C(=O)N[C@@H](Cc1c[nH]c2ccccc12)C(=O)NCc1ccccc1 (ClAc-Tyr-Trp-NHBn) | 8.35 | > 100 | inactive | inactive | – | – | – | – | – | 2.37 | 3.46 | 12.3 | 5.04 | – | – |
| C=CC[C@H](NC(=O)CCl)C(=O)N[C@@H](Cc1c[nH]c2ccccc12)C(=O)NCc1ccccc1 (ClAc-[AllylGly]-Trp-NHBn) | 1.72 | > 100 | Active | Active | – | – | – | – | – | 0.49 | 1.16 | 2.12 | 5.87 | – | – |
| CCOC(=O)[C@H]1O[C@@H]1C(=O)N[C@@H](CC(C)C)C(=O)NCCC(C)C [ALOXISTATIN] | – | – | Active | Active | – | – | – | – | – | – | – | – | – | – | 0.034 |
| CC(C)C(=O)OC[C@H]1O[C@@H](n2ccc(NO)nc2=O)[C@H](O)[C@@H]1O [MOLNUPIRAVIR] | – | > 100 | – | – | – | – | – | – | – | 4.31 | 5.44 | 6.04 | 1.22 | – | – |
| CCC(CC)COC(=O)[C@H](C)N[P@](=O)(OC[C@H]1O[C@@](C#N)(c2ccc3c(N)ncnn23)[C@H](O)[C@@H]1O)Oc1ccccc1 [REMDESIVIR] | – | > 40 | Active | Active | – | – | – | – | – | 3.74 | 2.93 | 3.74 | 0.83 | – | – |
